Reference: patent publication US20230012368A1 (Hoffmann-La Roche Inc., priority 2018, published 2023)
Structures can show the parent of a compound that is named as a salt.

Test system: Acinetobacter baumannii ATCC 17978
Test: Antimicrobial susceptibility testing: 90% growth inhibitory concentration (IC90) determination
Assay type: cell-based
Conditions: Acinetobacter baumannii, ATCC17978, 16 h, 90% growth inhibitory concentration; Acinetobacter baumannii ATCC17978; Iso-Sensitest broth, OD 600 nm over 16h; read-out: ATCC17978 IC90
Procedure, shortened: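 Compounds serially twofold diluted (e.g. 50 to 0.097 μM final) in Iso-Sensitest broth, inoculated at ~5×10^(5) CFU/ml, incubated at 35±2° C. OD600 read every 20 minutes over 16h. IC90 taken as concentration inhibiting 90% of growth during logarithmic phase.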

Row | Structure (SMILES) | IC90 [nM]
1 | CCc1cc(Nc2nccn3c(-c4ccc(Oc5ccccn5)c(F)c4F)cnc23)ccc1C(=O)NCCNC(=O)[C@H](N)CCCNC(=N)N [Example 422, N-[2-[[(2R)-2-amino-5-guanidino-pentanoyl]amino]ethyl]-4-[[3-[2,3-difluoro-4-(2-pyridyloxy)phenyl]imidazo [1,2-a]pyrazin-8-yl]amino]-2-ethyl-benzamide; formic acid] | 870
2 | CCc1cc(Nc2nccn3c(-c4ccc(OC)c(F)c4F)cnc23)ccc1C(=O)NCC[C@@H](C)NC(=O)[C@@H](N)CCCNC(=N)N [Example 340, N-[(3R)-3-[[(2S)-2-amino-5-carbamimidamidopentanoyl]amino]butyl]-4-[[3-(2,3-difluoro-4-methoxyphenyl)imidazo[1,2-a]pyrazin-8-yl]amino]-2-ethylbenzamide; hydrochloride] | 590
3 | CCc1cc(Nc2nccn3c(-c4ccc(Oc5ccncn5)c(F)c4F)cnc23)ccc1C(=O)NCCNC(=O)[C@@H](N)CCNC(=N)N [Example 440, N-[2-[[(2S)-2-amino-4-guanidino-butanoyl]amino]ethyl]-4-[[3-(2,3-difluoro-4-pyrimidin-4-yloxy-phenyl)imidazo[1,2-a]pyrazin-8-yl]amino]-2-ethyl-benzamide; formic acid] | 520
4 | CCc1cc(Nc2nccn3c(-c4ccc(OC)c(F)c4F)cnc23)ccc1C(=O)NCCNC(=O)NCCN [Example 339, N-[2-(2-aminoethylcarbamoylamino)ethyl]-4-[[3-(2,3-difluoro-4-methoxyphenyl)imidazo[1,2-a]pyrazin-8-yl]amino]-2-ethylbenzamide] | 560
5 | Cc1cc(Nc2nccn3c(-c4ccc(OC(F)F)cc4)cnc23)ccc1C(=O)NC[C@@H](C)N [Example 268, N-[(2R)-2-aminopropyl]-4-[[3-[4-(difluoromethoxy)phenyl]im-idazo[1,2-a]pyrazin-8-yl]amino]-2-methylbenzamide;hydrochlo-ride] | 5600
6 | CCc1cc(Nc2nccn3c(-c4ccc(OC)c(F)c4Cl)cnc23)ccc1C(=O)NCCNC(=O)[C@@H](N)CCCNC(=N)N [Example 126, N-[2-[[(2S)-2-amino-5-guanidino-pentanoyl]amino]ethyl]-4-[[3-(2-chloro-3-fluoro-4-methoxy-phenyl)imidazo[1,2-a]pyrazin-8-yl]amino]-2-ethyl-benzamide formate] | 210
7 | Cc1cc(Nc2nccn3c(-c4ccc(OC(F)F)cc4)cnc23)ccc1C(=O)NCCCCCCN [Example 21, N-(6-aminohexyl)-4-((3-(4-(difluoromethoxy)phenyl)imidazo[1,2-a]pyrazin-8-yl)amino)-2-methylbenzamide hydrochloride] | 120
